This is an account of results in patent US11555202B2, “Elite event EE-GM5 and methods and kits for identifying such event in biological samples” (priority 2016, dated 2023).

The test system of the data set is soybean plants containing event EE-GM5. Nature of the data set: HPPD inhibitor herbicide tolerance field trials on plants with EE-GM5 (maximum phytotoxicity). The class given is in vivo, soybean (Glycine max). To be noted: for tolerance of plants with EE-GM5 to the herbicide: field, different locations over 2 years, applied pre-emergence or post-emergence. As for the experimental part: Tolerance of plants comprising EE-GM5 to HPPD inhibitor herbicides was tested at different locations in the field over 2 years. […] All post-emergence treatments were at the V2-V3 stage, with adjuvants crop oil concentrate and ammonium sulfate added to increase herbicide activity.
The “maximum phytotoxicity” as used herein is the highest phytotoxicity rating recorded at any observation during the duration of a trial (with 3 to 4 observations per trial). In existing weed control applications, a normal (1×) dose for isoxaflutole (IFT) in pre- or post-emergence application and for MST in post-emergence application is 105 gr/ha, and a normal (1×) dose for mesotrione in pre-emergence application is 210 gr/ha.
Also, in several field trials across 2 years, soybean plants with event EE-GM5 had good tolerance towards experimental HPPD inhibitor compound 2-methyl-N-(5-methyl-1,3,4-oxadiazol-2-yl)-3-(methylsulfonyl)-4-(trifluoromethyl)benzamide (U.S. Pat. No. 9,101,141) when applied pre-emergence at 400 gr ai/ha or post-emergence at 200 gr ai/ha, respectively (the average maximum phytotoxicity value for each treatment was below 20%). […] All post-emergence treatments were at the V2-V3 stage, with adjuvants crop oil concentrate and ammonium sulfate added to increase herbicide activity.
Also, plants with EE-GM5 when treated post-emergent (V2-V3) with topramezone at 36 g ai/ha (+COC and AMS) in 2 field trials in the US gave an average maximum phytotoxicity of 11%, showing EE-GM5 also confers good tolerance to this HPPD inhibitor.

Consider `CSc1c(C(F)(F)F)ccc(C(=O)Nc2nnnn2C)c1Cl` [2-chloro-3-(methylsulfanyl)-N-(1-methyl-1H-tetrazol-5-yl)-4-(trifluoromethyl)benzamide], for which the average maximum phytotoxicity runs as follows: (3rd year, EE-GM5 in Thorne background, 150 g/ha post-emergence, 3 field trial locations) 13.3%; (several field trials across 2 years, post-emergence (V2-V3) at 100-150 gr ai/ha) 20%. On to `CS(=O)(=O)c1ccc(C(=O)C2C(=O)CCCC2=O)c([N+](=O)[O-])c1` [mesotrione, 2-[4-(Methylsulfonyl)-2-nitrobenzoyl]cyclohexane-1,3-dione], for which the “tolerance of plants with EE-GM5 to the herbicide” value was “commercially relevant tolerance”.

As to `CS(=O)(=O)c1cc(C(F)(F)F)ccc1C(=O)c1cnoc1C1CC1` [isoxaflutole, (5-cyclopropyl-4-isoxazolyl)[2-(methylsulfonyl)-4-(trifluoromethyl)phenyl]methanone], the “tolerance of plants with EE-GM5 to the herbicide” value is listed as “commercially relevant tolerance”. Where the note is “3rd year, EE-GM5 in Thorne background, post-emergence V2-V3 stage at 210 g/ha, 4 locations”, the average maximum phytotoxicity is 10.9%. Besides, the maximum phytotoxicity (3rd year, EE-GM5 in Thorne background, pre-emergence at 410 g/ha, one field trial location) was 9%. The compound `Cc1c(C(=O)c2cnn(C)c2O)ccc(S(C)(=O)=O)c1C1=NOCC1` [topramezone, [3-(4,5-dihydro-3-isoxazolyl)-2-methyl-4-(methylsulfonyl)phenyl](5-hydroxy-1-methyl-1H-pyrazol-4-yl)methanone] gave an average maximum phytotoxicity (post-emergent (V2-V3) at 36 g ai/ha (+COC and AMS), 2 field trials in the US) of 11%.

Turning to `Cc1nnc(NC(=O)c2ccc(C(F)(F)F)c(S(C)(=O)=O)c2C)o1` [2-methyl-N-(5-methyl-1,3,4-oxadiazol-2-yl)-3-(methylsulfonyl)-4-(trifluoromethyl)benzamide], the “average maximum phytotoxicity value” was “below 20%” (several field trials across 2 years, post-emergence (V2-V3) at 200 gr ai/ha) and “below 20%” (several field trials across 2 years, pre-emergence at 400 gr ai/ha).
